# Data as given in patent US4820712A, “Sparsomycin (SC-RS) compounds having antitumor activity, a process for their preparation and pharmaceutical compositions containing sparsomycin (SC-RS) compounds” (priority 1986, dated 1989).
# Like-named read-outs stand apart in the source and are kept apart here.
# Assays:
# L1210 leukemia = test: in vivo antitumor assay, L1210 leukemia; parameters: species or system CDF1 mice
# Procedure: (§1) The antitumor activity of the present compounds has also been investigated by in vivo assays. In the assays, mice were treated for nine days in succession, starting at 24 hours after the time of tumor implant.
# (§2) The results are shown in tables 4, 5 and 6 and represent the number of tumor-bearing mice surviving after administration of optimal doses of the test compound, expressed as a treatment/control (T/C×100%) ratio. In the tables, information is provided with respect to the sex, dose, weight loss of treated animals compared to control animals, and the number of survivors in groups of 6 mice.
# acute toxicity LD50 = format: in vivo, mice; conditions: mouse, in vivo, ip, daily x9 injections, mice; 95% confidence interval given; read-out: LD 50 in mg/kg/inj i.p. in mice
# From the text: It appears therefrom that ala-sparsomycin is about 9× less toxic than sparsomycin.
# P388 leukemia = test: in vivo antitumor assay, P388 leukemia; parameters: species or system CDF1 mice; conditions: for T/C (survival, treatment/control x 100%): ip daily x9, optimal dose mg/kg: sparsomycin 0.125, n-octyl 22.5, benzyl 2.0, 2e 20.0
# Procedure: as §1, §2
# Leukemia L 1210 cells = test: in vitro clonogenic L1210 assay (inhibition of colony formation in soft agar); format: cell-based; conditions: Mus musculus, L1210, 72 h, read-out: ID50 (dose giving 50% inhibition of L1210 colony formation)
# Procedure: The in vitro clonogenic assay was effected in Leukemia L 1210 cells in soft agar medium (0.3%). […] In the analysis, the inhibition of the L 1210 colony formation by sparsomycin and derivatives thereof is determined for various concentrations, and the dose giving 50% inhibition of the colony formation, as compared with non-treated control cells is calculated (ID50).
# From a suspension culture one hundred L 1210 cells are plated out in 35 mm culture dishes (Falcon) containing 1 ml soft agar culture medium and the compound to be investigated in suitable concentrations. The soft agar culture medium consists of Dulbecco's medium supplemented with 20% horse serum, 60 μmole 2-mercaptoethanol, 20 mg/ml L-asparagine, 75 mg/ml DEAE dextran (molecular weight 2×10^6) and 0.3% bacto agar (Difco). The culture dishes were incubated at 37° C. in an atmosphere of 10% CO2 in humidified air for 3 days. After this period of continuous exposure to the medicament the colonies were counted and dose-effect curves made. From these curves, the medicament dose is calculated which causes 50% inhibition of the colony formation as compared with non-treated control cells.
# [1] = molecular target: ribosomes from S. cerevisiae Y166 (peptidyl transferase activity); test: polyphenylalanine synthesis assay, S. cerevisiae ribosomes; format: biochemical; conditions: concentration giving 50% inhibition relative to control; 30° C., 30 min; read-out: ED50 polyPhe synthesis S. cerevisiae
# Procedure: (§3) The peptidyl transferase activity was measured by the polyphenylalanine synthesis assay (Nirenberg and Matthei, Proc. Natl. Acad. Sci. USA 47 (1961) 1588), the fragment reaction (Monro, Methods Enzymol. 20 (1971) 472) and the puromycin reaction. In all the in vitro tests, i.e. polyPhe synthesis, fragment reaction and puromycin reaction, ribosomes from E. coli MRE600 and S. cerevisiae Y166 were used. The reaction mixture for polyphenylalanine synthesis was slightly different for E. coli and S. cerevisiae.
# S. cerevisiae: The test was carried out as indicated above for E. coli. The phosphoenol pyruvate and pyruvate kinase were, however, replaced by creatine phosphate (20 mM) and creatine phosphokinase (50 μg/ml). The incubation was performed at 30° C. for 30 min and the samples were processed as described above. Under these conditions the control samples polymerized 5-14 and 3-8 molecules of phenylalanine per ribosome derived from E. coli and S. cerevisiae, respectively. Ribosomes and supernatant factors from E. coli and S. cerevisiae were prepared according to standard procedures, described by Staehelin and Maglott, Methods Enzymol. 20 (1971) 449, and by Sanchez-Madrid et al, Eur. J. Biochem. 98 (1979) 409.
# (§4) The concentration of sparsomycin or an analog giving 50% inhibition of the protein synthesis relative to the control is given in ED50.
# [2] = molecular target: ribosomes from S. cerevisiae Y166 (peptidyl transferase activity); test: fragment reaction, S. cerevisiae ribosomes; format: biochemical; conditions: 50% inhibition relative to control; 0° C., 30 min, 33% methanol; read-out: ED50 Fragment reaction S. cerevisiae
# Procedure: as §3
# (§5) The fragment reaction was carried out in 150 μl of 33 mM Tris-HCl pH 7.4, 270 mM KCl, 13 mM magnesium acetate containing 1 mg/ml of ribosomes, 2 mM puromycin, 1 pmol of N-acetyl-[^3 H]Leu-ACCAC(U), the required concentration of sparsomycin or its analogue and 33% methanol. The reaction was initiated by the addition of the alcohol and allowed to proceed at 0° C. for 30 min, and was then stopped by the addition of 100 μl of 0.3M sodium acetate pH 5.5 saturated with MgSO4. The samples were extracted with 1.5 ml of ethyl acetate and 1 ml of the organic phase was checked for radioactivity. The 3' terminal pentanucleotide N-acetyl-[^3 H]Leu-ACCAC(U) was prepared from N-acetyl-[^3 H]Leu-tRNA by ribonuclease T1 as described by Monro.
# as §4
# [3] = test system: ribosomes from E. coli MRE600 (peptidyl transferase activity); test: puromycin reaction, E. coli ribosomes; format: biochemical; conditions: 50% inhibition relative to control; read-out: ED50 Puromycin reaction E. coli
# Procedure: as §3
# The puromycin reaction was carried out in 25 μl of 30 mM KCl, 50 mM NH4 Cl, 30 mM Tris-HCl pH 7.8, 20 mM MgCl2, 10 pmol of ribosomes, 100 μg/ml of poly(U) and 15 pmol of N-acetyl-[^3 H]Phe-tRNA. The reaction mixture was incubated for 30 min at 37° C. and then 1 μl of 20 mM puromycin was added and incubation was followed for 5 more min. To the samples 250 μl of 0.1M sodium carbonate and 0.7 ml of ethyl acetate were added, shaken for 1 min, centrifuged to separate the phases and 0.5 ml of the upper organic phase taken for estimating the radioactivity.
# as §4
# E. coli MRE600 = test: inhibition of bacterial growth; format: cell-based
# Procedure: Inhibition of bacterial growth was tested in solid as well as in liquid medium. For the test on agar plates, petri dishes containing 15 ml of LB medium (10 g/l bactotryptone, 5 g/l yeast extract and 5 g/l NaCl) were covered with 5 ml of the same medium--kept melted at 40° C.--containing 40 μl of a culture of the required bacterium at approximately an A550 of 2. After solidification, 3 mm filter disks containing 4 μl of a 10 mM solution of the antibiotic in 50EtOH/DMSO were placed on the surface of the agar and the plates were incubated at 37° C. for 24 h. For the test in liquid medium, E. coli MRE600 was grown in LB medium supplemented with 0.2% of glucose to exponential phase (A560 =0.1) and distributed in 1 ml aliquots in tubes containing the required amount of antibiotic. The tubes were incubated at 37° C. for 4 h, subsequently diluted with 3 ml of 0.1% of sodium azide to stop growth and the absorption at 550 nm was measured. The absorption of the medium without addition of antibiotic was considered as 100% growth.
# [4] = test system: ribosomes from E. coli MRE600 (peptidyl transferase activity); test: polyphenylalanine synthesis assay, E. coli ribosomes; format: biochemical; conditions: concentration giving 50% inhibition relative to control; 37° C., 30 min; read-out: ED50 polyPhe synthesis E. coli
# Procedure: as §3
# E. coli: The reaction mixture (50 μl) contained 50 mM Tris-HCl pH 7.6, 15 mM MgCl2, 90 mM KCl, 15 mM β-mercapto ethanol, 1 mM GTP, 10 mM ATP, 0.2 mg/ml of polyuridylic acid, 1.5 mg/ml tRNA, 0.3 μM of ribosomes, 2.5 mg/ml of phosphoenol pyruvate, 20 μg/ml of pyruvate kinase, the required concentration of sparsomycin or its analogue and 5 μl of supernatant fraction S-100. Subsequently, [^3 H]phenylalanine, 30 μM (about 60 cpm/pmol) was added to start the reaction. Incubation was at 37° C. for 30 min. The reaction was stopped by the addition of 1 ml of 10% TCA and the samples were filtered through glass fiber filters. The filters were washed with 10 ml of cold 10% TCA, dried and counted for radioactivity.
# as §4
# [5] = test system: ribosomes from E. coli MRE600 (peptidyl transferase activity); test: fragment reaction, E. coli ribosomes; format: biochemical; conditions: 50% inhibition relative to control; 0° C., 30 min, 33% methanol; read-out: ED50 Fragment reaction E. coli
# Procedure: as §3, §5, §4
# [6] = test system: RC (renal cell) carcinoma; test: in vivo antitumor assay, RC (renal cell) carcinoma; parameters: species or system CDF1 mice; conditions: for T/C (survival, treatment/control x 100%): ip daily x9, optimal dose mg/kg: sparsomycin 0.125, n-octyl 20.0, benzyl 2.7, 2a 1.1
# Procedure: as §1, §2
# solubility in water = format: physicochemical
# [7] = female mice, ip daily x9, optimal dose mg/kg: sparsomycin 0.25, n-octyl 12.0, benzyl 10.0, 2a 2.5, 2e 13.3
# [8] = female mice, ip daily x9, dose mg/kg: sparsomycin 0.25, n-octyl 12.0, benzyl 10.0, 2a 2.5, 2e 13.3
# [9] = male mice, ip daily x9, dose mg/kg: sparsomycin 0.125, n-octyl 22.5, benzyl 2.0, 2e 20.0
# [10] = soft agar 0.3%, 3 days continuous exposure, vs non-treated control cells
# [11] = Escherichia coli, MRE600, 4 h, read-out: Growth inhibition E. coli MRE600 ED50
# [12] = male mice, ip daily x9, dose mg/kg: sparsomycin 0.125, n-octyl 20.0, benzyl 2.7, 2a 1.1
# [13] = male mice, ip daily x9, optimal dose mg/kg: sparsomycin 0.125, n-octyl 20.0, benzyl 4.0, 2a 1.7
# [14] = male mice, ip daily x9, dose mg/kg: sparsomycin 0.125, n-octyl 20.0, benzyl 4.0, 2a 1.7
Compound,"T/C (survival, treatment/control x 100%) (L1210 leukemia; [7])",cures (survivors in groups of 6 mice) (L1210 leukemia; [8]),"weight loss (T - C) (L1210 leukemia; mouse, in vivo, ip)",LD50 (acute toxicity LD50),"T/C (survival, treatment/control x 100%) (P388 leukemia; male mice)",cures (survivors in groups of 6 mice) (P388 leukemia; [9]),"weight loss (T - C) (P388 leukemia; mouse, in vivo, ip)",IC50 (Leukemia L 1210 cells; [10]),IC50 [1],IC50 (Leukemia L 1210 cells),IC50 [2],IC50 [3],IC50 (E. coli MRE600; [11]),IC50 [4],IC50 [5],"T/C (survival, treatment/control x 100%) ([6]; male mice)","cures (survivors in groups of 6 mice) [6, 12]","T/C (survival, treatment/control x 100%) (L1210 leukemia; [13])",cures (survivors in groups of 6 mice) (L1210 leukemia; [14]),solubility (solubility in water),further results
"CCCCSC[S@+]([O-])C[C@H](C)NC(=O)/C=C/c1c(C)[nH]c(=O)[nH]c1=O [2e, (Sc Rs)-1-(n-butylthiomethyl)sulfinyl-2-[β-(6-methyl-5-uracilyl)acrylamido]-propane]",161%,0/6,-0.7 g,> 16 mg/kg,146%,0/6,-3.2 g,,,,,,,,,,,,,,
"CCCCCCCCSC[S@+]([O-])C[C@H](C)NC(=O)/C=C/c1c(C)[nH]c(=O)[nH]c1=O [2f, (Sc Rs)-1-(n-octylthiomethyl)sulfinyl-2-[β-(6-methyl-5-uracilyl)acrylamido]-propane]",,,,,,,,180 nM,,,,,,,,,,,,,
"CSC[S@@+]([O-])C[C@H](C)NC(=O)/C=C/c1c(C)[nH]c(=O)[nH]c1=O [3a, (Sc Ss)-1-(methylthiomethyl)sulfinyl-2-[β-(6-methyl-5-uracilyl)acrylamido]-propane]",,,,,,,,,143000 nM,550 nM,68000 nM,2700 nM,44000 nM,283000 nM,55000 nM,,,,,,
Cc1[nH]c(=O)[nH]c(=O)c1/C=C/C(=O)N[C@@H](CO)C[S@@+]([O-])CSCc1ccccc1 [benzyl-sparsomycin],217%,0/6,,5 mg/kg,133%,0/6,,,600 nM,110 nM,2600 nM,130 nM,1000 nM,,7600 nM,158%,0/6,162%,0/6,1500 µg/mL,"weight loss (T - C) [6, 12]: -1.8 g; weight loss (T - C) (L1210 leukemia; [8]): -1.6 g; weight loss (T - C) (L1210 leukemia; male mice, ip daily x9 from 24 h after implant, dose mg/kg: sparsomycin 0.125, n-octyl 20.0, benzyl 4.0, 2a 1.7): -1.8 g; weight loss (T - C) (P388 leukemia; [9]): -2.2 g"
CCCCCCCCSC[S@+]([O-])C[C@H](CO)NC(=O)/C=C/c1c(C)[nH]c(=O)[nH]c1=O [n-octyl-sparsomycin],153%,0/6,-1.9 g,29.5 mg/kg,150%,0/6,-1.7 g,100 nM,1300 nM,,300000 nM,250 nM,,1600 nM,60000 nM,179%,0/6,152%,0/6,~200 µg/mL,"weight loss (T - C) ([6]; mouse, in vivo, ip): -1.6 g; IC50 (E. coli MRE600; Escherichia coli, MRE600, 4 h; read-out: Growth inhibition E. coli MRE600 ED50): 2500 nM"
